The text below walks through data of patent US20120295845A1, “IMIDAZO-PYRAZOLES AS GPR119 INHIBITORS” (Pfizer Inc, priority 2009, published 2012).

Values joined by “and” are separate entries in the source; they are usually repeats but may differ in a detail not shown here. Equal entries are not always repeated.

For assay [1], the target named is T1, human GPR119 (Homo sapiens, UniProt Q8TDV5).
T1 construct: host or cells: U2OS
The assay is described as follows: beta-arrestin functional assay (DiscoverX PathHunter U2OS hGPR119 beta-arrestin cells). It counts as cell-based. The note with it: for EC50: read-out: Human B-arrestin Functional EC50; for Emax: U2OS, read-out: Intrinsic Activity* (B-arrestin). As to the method:
GPR119 agonist activity was also determined with a cell-based assay utilizing DiscoverX PathHunter β-arrestin cell assay technology and their U2OS hGPR119 β-arrestin cell line (DiscoverX Cat # 93-0356C3). In this assay, agonist activation is determined by measuring agonist-induced interaction of β-arrestin with activated GPR119. A small, 42 amino acid enzyme fragment, called ProLink was appended to the C-terminus of GPR119. Arrestin was fused to the larger enzyme fragment, termed EA (Enzyme Acceptor). Activation of GPR119 stimulates binding of arrestin and forces the complementation of the two enzyme fragments, resulting in formation of a functional β-galactosidase enzyme capable of hydrolyzing substrate and generating a chemiluminescent signal.
Specifically, U2OS hGPR119 β-arrestin cells (DiscoverX 1×10^7/mL) are removed from cryopreservation and diluted in growth medium (Minimum essential medium (MEM; Gibco Cat # 11095-080), 10% heat inactivated fetal bovine serum (HIFBS; Sigma Cat # F4135-100), […] sodium pyruvate (Sigma Cat # S8636), 500 microg/mL G418 (Sigma Cat # G8168) and 250 microg/mL Hygromycin B (Invitrogen Cat # 10687-010). The cell concentration was adjusted to 1.66×10^5 cells/mL and 30 mLs of this suspension was added to a T-175 flask and incubated at 37 degrees Celsius in a humidified environment in 5% carbon dioxide. After 48 hours, the cells were removed from the T-175 flask with enzyme-free cell dissociation buffer (Gibco cat # 13151-014), centrifuged at 800×g and then re-suspended in plating medium (Opti-MEM I (Invitrogen/BRL Cat # 31985-070) and 2% charcoal dextran treated fetal bovine serum (CD serum; HyClone Cat # SH30068.03). The cell concentration was adjusted to 2.5×10^5 cells/mL with plating medium and 10 microL of this cell suspension (2500 cells) was added to each well of a white Greiner 384-well low volume assay plate (VWR cat # 82051-458) and the plates were incubated at 37 degrees Celsius in a humidified environment in 5% carbon dioxide.
After 16 hours (overnight) the assay plates were removed from the incubator and varying concentrations of each compound to be tested (diluted in assay buffer (1×HBSS+CaCl2+MgCl2 (Gibco Cat # 14025-092), 20 mM HEPES pH 7.0 (Gibco Cat # 15630-080) and 0.1% BSA (Sigma Cat # A9576)) were added to the assay plate wells in a volume of 2.5 microL (final DMSO concentration was 0.5%). After a 90 minute incubation at 37 degrees Celsius in a humidified environment in 5% carbon dioxide, 7.5 microL of Galacton Star β-galactosidase substrate (Path Hunter Detection Kit (DiscoveRx Cat # 93-0001); prepared as described in the manufacturers assay protocol) was added to each well of the assay plate. The plates were incubated at room temperature and after 60 minutes, changes in the luminescence were read with an Envision 2104 multilabel plate reader at 0.1 seconds per well. EC50 determinations were made from an agonist-response curves analyzed with a curve fitting program using a 4-parameter logistic dose response equation.
T1 sequence (P32121 whole entry partner, one chain of several): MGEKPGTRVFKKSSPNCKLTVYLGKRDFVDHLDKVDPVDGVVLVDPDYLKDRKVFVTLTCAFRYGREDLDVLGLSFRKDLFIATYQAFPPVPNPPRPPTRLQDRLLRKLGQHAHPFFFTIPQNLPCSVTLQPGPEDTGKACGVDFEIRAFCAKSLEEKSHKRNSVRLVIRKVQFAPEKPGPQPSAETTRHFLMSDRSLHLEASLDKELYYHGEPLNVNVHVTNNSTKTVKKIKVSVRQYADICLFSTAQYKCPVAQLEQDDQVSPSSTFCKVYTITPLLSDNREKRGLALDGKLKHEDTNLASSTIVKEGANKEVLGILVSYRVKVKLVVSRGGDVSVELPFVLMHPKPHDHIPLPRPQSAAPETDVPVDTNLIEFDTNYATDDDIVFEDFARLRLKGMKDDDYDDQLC

Assay [2] concerns the target T2, human GPR119 (Homo sapiens, UniProt Q8TDV5).
T2 construct: host or cells: HEK293-CRE beta-lactamase cells
T2 sequence (Q8TDV5 1-335): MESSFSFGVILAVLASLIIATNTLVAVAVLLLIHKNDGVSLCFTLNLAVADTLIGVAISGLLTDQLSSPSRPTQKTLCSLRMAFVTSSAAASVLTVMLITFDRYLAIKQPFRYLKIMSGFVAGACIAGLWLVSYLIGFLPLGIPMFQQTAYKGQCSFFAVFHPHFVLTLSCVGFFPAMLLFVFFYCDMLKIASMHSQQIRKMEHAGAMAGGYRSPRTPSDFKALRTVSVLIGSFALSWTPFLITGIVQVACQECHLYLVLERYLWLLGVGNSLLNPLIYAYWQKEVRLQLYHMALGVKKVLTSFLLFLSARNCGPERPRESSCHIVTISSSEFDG
Put plainly: beta-lactamase functional assay (hGPR119 HEK293-CRE beta-lactamase reporter). Type of assay: cell-based. The note with it: for EC50: read-out: Human B-lactamase Functional EC50; for Emax: read-out: Intrinsic Activity* (B-lactamase). How it is done:
The assay for GPR119 agonists utilizes a cell-based (hGPR119 HEK293-CRE beta-lactamase) reporter construct where agonist activation of human GPR119 is coupled to beta-lactamase production via a cyclic AMP response element (CRE). GPR119 activity is then measured utilizing a FRET-enabled beta-lactamase substrate, CCF4-AM (Live Blazer FRET-B/G Loading kit, Invitrogen cat # K1027). Specifically, hGPR119-HEK-CRE- beta-lactamase cells (Invitrogen 2.5×10^7/mL) were removed from liquid nitrogen storage, and diluted in plating medium (Dulbecco's modified Eagle medium high glucose (DMEM; Gibco Cat # 11995-065), 10% heat inactivated fetal bovine serum (HIFBS; Sigma Cat # F4135), 1×MEM Nonessential amino acids (Gibco Cat # 15630-080), 25 mM HEPES pH 7.0 (Gibco Cat # 15630-080), 200 nM potassium clavulanate (Sigma Cat # P3494). The cell concentration was adjusted using cell plating medium and 50 microL of this cell suspension ([…]) was added into each well of a black, clear bottom, poly-d-lysine coated 384-well plate (Greiner Bio-One cat# 781946) and incubated at 37 degrees Celsius in a humidified environment containing 5% carbon dioxide. After 4 hours the plating medium was removed and replaced with 40 microL of assay medium (Assay medium is plating medium without potassium clavulanate and HIFBS). Varying concentrations of each compound to be tested was then added in a volume of 10 microL (final DMSO≦0.5%) and the cells were incubated for 16 hours at 37 degrees Celsius in a humidified environment containing 5% carbon dioxide. Plates were removed from the incubator and allowed to equilibrate to room temperature for approximately 15 minutes. 10 microL of 6×CCF4/AM working dye solution (prepared according to instructions in the Live Blazer FRET-B/G Loading kit, Invitrogen cat # K1027) was added per well and incubated at room temperature for 2 hours in the dark. Fluorescence was measured on an EnVision fluorimetric plate reader, excitation 405 nm, emission 460 nm/535 nm. EC50 determinations were made from agonist-response curves analyzed with a curve fitting program using a 4-parameter logistic dose-response equation.

Where [3] appears, read: U2OS hGPR119 beta-arrestin cells, 90 min incubation, one value per run.
[4] abbreviates: percent of maximal activity relative to standard GPR119 agonist (WO2005121121) at 10 microM, one value per run.
The mark [5] stands for this setting: marked **: curve extrapolated to 100%, relative to standard GPR119 agonist at 10 microM.

As a reminder, the EC50 is the concentration giving half of the maximal effect. As to `Cc1c(O[C@H]2CCN(C(=O)OC(C)C)C[C@H]2F)ncnc1N1CCn2nccc21` (racemic) [Example 4, Isopropyl (3R,4S)-4-{[6-(2,3-dihydro-1H-imidazo[1,2-b]pyrazol-1-yl)-5-methylpyrimidin-4-yl]oxy}-3-fluoropiperidine-1-carboxylate (racemic)], the EC50 in assay [1] (setting [3]) was 53 nM. In assay [1] (setting [4]), the Emax was determined as 38%.
In the case of `Cc1c(OC2CCN(C(=O)OC(C)C)CC2)ncnc1N1CCn2nccc21` [Example 1, Isopropyl 4-{[6-(2,3-dihydro-1H-imidazo[1,2-b]pyrazol-1-yl)-5-methylpyrimidin-4-yl]oxy}piperidine-1-carboxylate], the EC50 is 8190 nM and 4570 nM in assay [2] (curve was extrapolated to 100% to calculate the EC50 (**), one value per run); 612 nM and 386 nM and 1150 nM and 1440 nM in assay [2] (hGPR119 HEK293-CRE beta-lactamase cells, 16 h incubation, one value per run). Moreover, the values for the Emax in assay [2] (setting [5]) and in assay [2] (setting [4]) were 100% and 110%, respectively. In assay [2] (setting [4]), the “Intrinsic Activity* (B-lactamase)” value was 94% and 96%.
In the case of `Cc1c(O[C@H]2CCN(C(=O)OC3(C)CC3)C[C@H]2F)ncnc1N1CCn2nccc21` (single isomer, unassigned) [Example 6], in assay [1] (setting [3]), the EC50 is 47 nM and 121 nM. Besides, in assay [1] (setting [4]), the “Intrinsic Activity* (B-arrestin)” value was 87% and 65%.
`Cc1c(OC2CCN(C(=O)OC3(C)CC3)CC2)ncnc1N1CCn2nccc21` [Example 2, 1-Methylcyclopropyl 4-{[6-(2,3-dihydro-1H-imidazo[1,2-b]pyrazol-1-yl)-5-methylpyrimidin-4-yl]oxy}piperidine-1-carboxylate]: in assay [1] (setting [5]), the Emax was 100%. In addition, the EC50 in assay [1] (curve was extrapolated to 100% to calculate the EC50 (**)) was 313 nM.
For the compound `Cc1c(O[C@@H]2CCN(C(=O)OC3(C)CC3)C[C@@H]2F)ncnc1N1CCn2nccc21` (single isomer, unassigned) [Example 5], the EC50 in assay [1] (setting [3]) is 56 nM and 49 nM. The “Intrinsic Activity* (B-arrestin)” value in assay [1] (setting [4]) was 83% and 55%.
Regarding `Cc1c(O[C@H]2CCN(C(=O)OC3(C)CC3)C[C@H]2F)ncnc1N1CCn2nccc21` (racemic) [Example 3, 1-Methylcyclopropyl (3R,4S)-4-{[6-(2,3-dihydro-1H-imidazo[1,2-b]pyrazol-1-yl)-5-methylpyrimidin-4-yl]oxy}-3-fluoropiperidine-1-carboxylate (racemic)], in assay [1] (setting [3]), the EC50 is 74 nM and 92 nM. In addition, in assay [1] (setting [4]), the Emax was 83% and the “Intrinsic Activity* (B-arrestin)” value was determined as 68%.
